Laboratory results: BindingDB's records for doi:10.1021/acs.jmedchem.9b01967 (The University of Tokyo, 2020)

Assay: Inhibition of ATX (unknown origin)-mediated cell migration in human MDA-MB-231 cells assessed as reduction in cell motility after 3 hrs by Diff-Quick staining based microplate reader analysis

IC50: 30 nM
Compound: CCCCCCn1c(C)cc(=O)n2cc(-c3ccc(Cl)cc3)nc12
